# Experimental data from patent publication US10280165B2, “Pyridopyrimidinones and methods of use thereof” (Genentech, Inc., priority 2015, dated 2019).
# Target: HEK cells stably transfected with tetracycline inducible hNR1 and hNR2A (Homo sapiens (Human), UniProt Q05586+Q12879)
# Experiment: Assay 1: Cell-Based Assay (cytosolic calcium, positive allosteric modulation)
# Conditions: for Emax: HEK293, scaled relative to 100 μM L-glutamate maximal response (100%) and 0 μM L-glutamate (0%), with 30 μM glycine and 300 nM L-glutamate, read-out: Max %; for EC50: with 30 μM glycine and 300 nM L-glutamate (EC30), given for compounds reaching maximal response plateaus
# Experimental: Assay 1: Cell-Based Assay
# HEK cells stably transfected with tetracycline inducible hNR1 and hNR2A were seeded into clear bottom 384 well poly-D-lysine coated plates (2.5×10^4 cells per well) in Minimum Essential Media (MEM; without L-) including 7.5 μg mL doxycycline and 500 μM (+)-ketamine. The cells were incubated at 37° C. in 5% CO2 for 24 h. For measurement of changes in cytosolic calcium, the seeding media was removed and the cells incubated at 37° C. for 60 min with 1× Becton Dickinson Calcium Assay Kit reagent in Hanks Balanced Salt Solution (HBSS; w/o magnesium, including 1.8 mM calcium, 0.65 mg ml^−1 probenecid and 10 μM (+)-ketamine, pH 7.15) then allowed to equilibrate to rt for 30 min. Concentration-effect curves to Positive Allosteric Modulators (PAMs) were constructed by adding different concentrations (with 30 μM glycine and 300 nM L-glutamate (EC30)) to different wells in HBSS. Compounds were added after a 10 second baseline read and maximum level of relative fluorescence units (RFU) was measured over a 5 min period. Responses were scaled relative to 100 μM L-glutamate maximal response (100%) and 0 μM L-glutamate (0%). EC50 values are provided for compounds reaching maximal response plateaus, and the max % (EC50 (--)) only if no plateau was reached.
# A four-parameter Hill equation was fitted to individual concentration-effect curves:
# [formula] in which Y, S0, Sinf, AC50, n and c were effect, lower-asymptote, upper-asymptote, mid-point location, slope parameter, and concentration respectively.
# Chain of HEK cells stably transfected with tetracycline inducible hNR1 and hNR2A (Q12879 23-1464, other chains not shown): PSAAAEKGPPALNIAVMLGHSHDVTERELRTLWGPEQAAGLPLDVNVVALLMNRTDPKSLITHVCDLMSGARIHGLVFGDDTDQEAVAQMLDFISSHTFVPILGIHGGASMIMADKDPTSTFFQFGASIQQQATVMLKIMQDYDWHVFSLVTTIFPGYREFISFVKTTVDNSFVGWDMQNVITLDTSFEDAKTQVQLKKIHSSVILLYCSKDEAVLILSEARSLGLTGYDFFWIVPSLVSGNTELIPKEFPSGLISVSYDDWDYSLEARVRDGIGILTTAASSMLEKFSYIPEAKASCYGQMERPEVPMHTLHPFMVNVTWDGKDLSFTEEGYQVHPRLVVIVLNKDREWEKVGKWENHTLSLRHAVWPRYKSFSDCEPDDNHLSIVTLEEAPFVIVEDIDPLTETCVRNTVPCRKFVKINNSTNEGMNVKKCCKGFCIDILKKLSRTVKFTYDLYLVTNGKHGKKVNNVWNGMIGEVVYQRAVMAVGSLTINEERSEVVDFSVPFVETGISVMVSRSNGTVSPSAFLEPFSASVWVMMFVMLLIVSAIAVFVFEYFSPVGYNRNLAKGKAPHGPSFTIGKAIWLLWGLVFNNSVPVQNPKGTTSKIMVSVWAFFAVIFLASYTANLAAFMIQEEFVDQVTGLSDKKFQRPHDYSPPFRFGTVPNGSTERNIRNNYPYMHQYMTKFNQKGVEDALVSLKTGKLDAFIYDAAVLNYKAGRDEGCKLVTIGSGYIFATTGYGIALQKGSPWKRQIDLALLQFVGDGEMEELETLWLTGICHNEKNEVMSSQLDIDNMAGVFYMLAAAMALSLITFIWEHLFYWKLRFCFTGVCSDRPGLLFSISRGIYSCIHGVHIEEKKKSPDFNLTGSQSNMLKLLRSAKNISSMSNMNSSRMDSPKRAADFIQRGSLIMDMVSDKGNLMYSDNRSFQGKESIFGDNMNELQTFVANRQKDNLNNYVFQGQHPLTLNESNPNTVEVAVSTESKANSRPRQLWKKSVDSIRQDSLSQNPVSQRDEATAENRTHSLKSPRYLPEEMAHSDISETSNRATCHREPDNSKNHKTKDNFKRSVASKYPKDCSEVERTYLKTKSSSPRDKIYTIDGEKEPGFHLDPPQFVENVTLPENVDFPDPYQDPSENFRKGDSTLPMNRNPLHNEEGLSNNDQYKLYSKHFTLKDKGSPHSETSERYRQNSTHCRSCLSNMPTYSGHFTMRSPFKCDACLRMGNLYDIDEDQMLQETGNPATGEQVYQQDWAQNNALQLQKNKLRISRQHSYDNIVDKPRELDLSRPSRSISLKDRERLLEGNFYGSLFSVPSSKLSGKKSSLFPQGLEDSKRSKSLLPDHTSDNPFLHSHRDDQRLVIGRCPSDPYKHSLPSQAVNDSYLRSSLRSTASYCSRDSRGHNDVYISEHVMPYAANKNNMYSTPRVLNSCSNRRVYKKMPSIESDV
Emax [%],EC50 [nM],SMILES
135,126,"Cc1ccc2nc(Cn3nc(C(F)(F)F)cc3Cl)cc(=O)n2c1[C@@H]1C[C@H]1CO [Compound 36, 2-[[5-chloro-3-(trifluoromethyl)pyrazol-1-yl]methyl]-6-[(1R,2R)-2-(hydroxymethyl)cyclopropyl]-7-methyl-pyrido[1,2-a]pyrimidin-4-one]"
127,,"Cc1ccc2nc(Cn3nc(C(F)(F)F)cc3Cl)cc(=O)n2c1[C@H]1C[C@@H]1CO [Compound 37, 2-[[5-chloro-3-(trifluoromethyl)pyrazol-1-yl]methyl]-6-[(1S,2S)-2-(hydroxymethyl)cyclopropyl]-7-methyl-pyrido[1,2-a]pyrimidin-4-one]"
144,39,"Cc1cc([C@@H]2C[C@H]2C#N)n2c(=O)cc(Cn3nc(C(F)(F)F)cc3Cl)nc2c1 [Compound 38, (1R,2R)-2-(2-[[5-chloro-3-(trifluoromethyl)pyrazol-1-yl]methyl]-8-methyl-4-oxo-pyrido[1,2-a]pyrimidin-6-yl]cyclopropanecarbonitrile]"
120,951,"Cc1cc([C@H]2C[C@@H]2C#N)n2c(=O)cc(Cn3nc(C(F)(F)F)cc3Cl)nc2c1 [Compound 39, (1S,2S)-2-[2-[[5-chloro-3-(trifluoromethyl)pyrazol-1-yl]methyl]-8-methyl-4-oxo-pyrido[1,2-a]pyrimidin-6-yl]cyclopropanecarbonitrile]"
148,,"N#C[C@@H]1C[C@H]1c1cccc2nc(Cn3nc(C(F)(F)F)cc3Cl)cc(=O)n12 [Compound 40, (1R,2R)-2-[2-[[5-chloro-3-(trifluoromethyl)pyrazol-1-yl]methyl]-4-oxo-pyrido[1,2-a]pyrimidin-6-yl]cyclopropanecarbonitrile]"
111,2900,"N#C[C@H]1C[C@@H]1c1cccc2nc(Cn3nc(C(F)(F)F)cc3Cl)cc(=O)n12 [Compound 41, (1S,2S)-2-[2-[[5-chloro-3-(trifluoromethyl)pyrazol-1-yl]methyl]-4-oxo-pyrido[1,2-a]pyrimidin-6-yl]cyclopropanecarbonitrile]"
110,10600,"N#C[C@H]1C[C@@H]1c1c(Cl)ccc2nc(Cn3nc(C(F)(F)F)cc3Cl)cc(=O)n12 [Compound 42, (1S,2S)-2-[7-chloro-2-[[5-chloro-3-(trifluoromethyl)pyrazol-1-yl]methyl]-4-oxo-pyrido[1,2-a]pyrimidin-6-yl]cyclopropanecarbonitrile]"
145,269,"Cc1cc(C2CC2C#N)n2c(=O)cc(Cn3nc(Cl)cc3C(F)(F)F)nc2c1 (stereo not shown) [Compound 43, 2-[2-[[3-chloro-5-(trifluoromethyl)pyrazol-1-yl]methyl]-8-methyl-4-oxo-pyrido[1,2-a]pyrimidin-6-yl]cyclopropanecarbonitrile]"
158,227,"Cc1ccc2nc(Cn3nc(Cl)cc3C(F)(F)F)cc(=O)n2c1C1CC1C#N (stereo not shown) [Compound 44, 2-[2-[[3-chloro-5-(trifluoromethyl)pyrazol-1-yl]methyl]-7-methyl-4-oxo-pyrido[1,2-a]pyrimidin-6-yl]cyclopropanecarbonitrile]"
151,,"N#C[C@@H]1C[C@H]1c1c(F)ccc2nc(Cn3nc(C(F)(F)F)cc3Cl)cc(=O)n12 [Compound 45, (1R,2R)-2-[2-[[5-chloro-3-(trifluoromethyl)pyrazol-1-yl]methyl]-7-fluoro-4-oxo-pyrido[1,2-a]pyrimidin-6-yl]cyclopropanecarbonitrile]"
107,3220,"N#C[C@H]1C[C@@H]1c1c(F)ccc2nc(Cn3nc(C(F)(F)F)cc3Cl)cc(=O)n12 [Compound 46, (1S,2S)-2-[2-[[5-chloro-3-(trifluoromethyl)pyrazol-1-yl]methyl]-7-fluoro-4-oxo-pyrido[1,2-a]pyrimidin-6-yl]cyclopropanecarbonitrile]"
200,178,"N#CC1CC1c1c(F)ccc2nc(Cn3nc(Cl)cc3C(F)(F)F)cc(=O)n12 (stereo not shown) [Compound 47, 2-[2-[[3-chloro-5-(trifluoromethyl)pyrazol-1-yl]methyl]-7-fluoro-4-oxo-pyrido[1,2-a]pyrimidin-6-yl]cyclopropanecarbonitrile]"
73,32400,"O=c1cc(Cn2nc(C(F)(F)F)cc2Cl)nc2ccccn12 [Compound 48, 2-[[5-chloro-3-(trifluoromethyl)pyrazol-1-yl]methyl]pyrido[1,2-a]pyrimidin-4-one]"
126,12300,"CC(=O)c1cccc2nc(Cn3nc(C(F)(F)F)cc3Cl)cc(=O)n12 [Compound 49, 6-acetyl-2-[[5-chloro-3-(trifluoromethyl)pyrazol-1-yl]methyl]pyrido[1,2-a]pyrimidin-4-one]"
124,7700,"CC(=O)c1c(C)ccc2nc(Cn3nc(C(F)(F)F)cc3Cl)cc(=O)n12 [Compound 50, 6-acetyl-2-[[5-chloro-3-(trifluoromethyl)pyrazol-1-yl]methyl]-7-methyl-pyrido[1,2-a]pyrimidin-4-one]"
114,9100,"CC(=O)c1c(C)ccc2nc(Cn3nc(Cl)cc3C(F)(F)F)cc(=O)n12 [Compound 51, 6-acetyl-2-[[3-chloro-5-(trifluoromethyl)pyrazol-1-yl]methyl]-7-methyl-pyrido[1,2-a]pyrimidin-4-one]"
120,79,"COc1ccc2nc(Cn3nc(C(F)(F)F)cc3Cl)cc(=O)n2c1[C@@H]1C[C@H]1C#N [Compound 52, (1R,2R)-2-[2-[[5-chloro-3-(trifluoromethyl)pyrazol-1-yl]methyl]-7-methoxy-4-oxo-pyrido[1,2-a]pyrimidin-6-yl]cyclopropanecarbonitrile]"
100,,"COc1ccc2nc(Cn3nc(C(F)(F)F)cc3Cl)cc(=O)n2c1[C@H]1C[C@@H]1C#N [Compound 53, (1S,2S)-2-[2-[[5-chloro-3-(trifluoromethyl)pyrazol-1-yl]methyl]-7-methoxy-4-oxo-pyrido[1,2-a]pyrimidin-6-yl]cyclopropanecarbonitrile]"
150,24700,"O=c1cc(Cn2nc(C(F)(F)F)cc2Cl)nc2cc(C(F)(F)F)cc(Cl)n12 [Compound 54, 6-chloro-2-[[5-chloro-3-(trifluoromethyl)pyrazol-1-yl]methyl]-8-(trifluoromethyl)pyrido[1,2-a]pyrimidin-4-one]"
116,102,"COc1ccc2nc(Cn3nc(Cl)cc3Cl)cc(=O)n2c1C1CC1C (stereo not shown) [Compound 55, 2-((3,5-dichloro-1H-pyrazol-1-yl)methyl)-7-methoxy-6-(2-methylcyclopropyl)-4H-pyrido[1,2-a]pyrimidin-4-one]"
142,123,"N#C[C@@H]1C[C@H]1c1cc(C(F)(F)F)cc2nc(Cn3nc(C(F)(F)F)cc3Cl)cc(=O)n12 [Compound 56, (1R,2R)-2-(2-((5-chloro-3-(trifluoromethyl)-1H-pyrazol-1-yl)methyl)-4-oxo-8-(trifluoromethyl)-4H-pyrido[1,2-a]pyrimidin-6-yl)cyclopropanecarbonitrile]"
154,222,"Cc1cc([C@@H]2C[C@H]2C#N)n2c(=O)cc(Cn3nc(Cl)cc3Cl)nc2c1 [Compound 57, (1R,2R)-2-(2-((3,5-dichloro-1H-pyrazol-1-yl)methyl)-8-methyl-4-oxo-4H-pyrido[1,2-a]pyrimidin-6-yl)cyclopropanecarbonitrile]"
